What was measured:
Nitric oxide synthase 1 = Nitric oxide synthase 1 (Homo sapiens, UniProt P29475); test: Inhibitory activity against Neuronal nitric oxide synthase
[1] = target: Nitric oxide synthase, inducible (Homo sapiens, UniProt P35228); test: Inhibitory activity against Inducible nitric oxide synthase
Nitric oxide synthase 3 = target: T1, Nitric oxide synthase 3 (Homo sapiens, UniProt P29474); test: Inhibitory activity against Endothelial nitric oxide synthase
T1 sequence (P29474 whole entry): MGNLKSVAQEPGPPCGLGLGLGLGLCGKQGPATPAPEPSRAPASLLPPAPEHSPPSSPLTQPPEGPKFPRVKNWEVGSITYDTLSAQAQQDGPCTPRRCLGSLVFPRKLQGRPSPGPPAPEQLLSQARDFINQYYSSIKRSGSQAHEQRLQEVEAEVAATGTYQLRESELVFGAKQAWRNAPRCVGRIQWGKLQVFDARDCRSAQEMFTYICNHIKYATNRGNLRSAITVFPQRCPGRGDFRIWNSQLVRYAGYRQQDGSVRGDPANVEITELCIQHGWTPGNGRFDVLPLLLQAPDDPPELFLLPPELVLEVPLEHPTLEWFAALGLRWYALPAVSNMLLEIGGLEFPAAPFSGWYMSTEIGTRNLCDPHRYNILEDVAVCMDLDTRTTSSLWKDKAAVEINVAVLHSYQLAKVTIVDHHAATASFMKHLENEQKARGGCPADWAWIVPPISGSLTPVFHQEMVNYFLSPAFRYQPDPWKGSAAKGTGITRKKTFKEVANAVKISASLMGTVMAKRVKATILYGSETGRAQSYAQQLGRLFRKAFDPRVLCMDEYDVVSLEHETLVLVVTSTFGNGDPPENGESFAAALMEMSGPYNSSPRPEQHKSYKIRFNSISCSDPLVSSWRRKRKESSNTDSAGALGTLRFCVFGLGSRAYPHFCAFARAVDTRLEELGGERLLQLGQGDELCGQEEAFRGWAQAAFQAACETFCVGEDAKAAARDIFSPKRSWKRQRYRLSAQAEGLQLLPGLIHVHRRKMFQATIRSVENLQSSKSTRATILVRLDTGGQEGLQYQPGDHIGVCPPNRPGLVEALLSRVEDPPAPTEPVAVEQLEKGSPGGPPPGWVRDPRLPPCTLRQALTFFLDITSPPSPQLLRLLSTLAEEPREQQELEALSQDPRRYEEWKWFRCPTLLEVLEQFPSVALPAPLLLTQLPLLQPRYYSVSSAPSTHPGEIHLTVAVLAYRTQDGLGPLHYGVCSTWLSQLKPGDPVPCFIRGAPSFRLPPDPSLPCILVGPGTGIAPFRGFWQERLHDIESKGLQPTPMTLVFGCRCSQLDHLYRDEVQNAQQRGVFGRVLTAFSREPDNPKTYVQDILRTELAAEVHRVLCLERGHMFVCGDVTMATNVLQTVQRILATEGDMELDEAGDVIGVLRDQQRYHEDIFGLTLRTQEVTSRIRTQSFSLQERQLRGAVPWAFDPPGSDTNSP

[2] = target: T2, Nitric oxide synthase 3 (Homo sapiens) (UniProt P29474); test: Ratio between Endothelial nitric oxide synthase and Inducible nitric oxide synthase
T2 sequence (whole entry): T1 sequence (P29474 whole entry)

Nitric oxide synthase 1, sequence (P29475 whole entry): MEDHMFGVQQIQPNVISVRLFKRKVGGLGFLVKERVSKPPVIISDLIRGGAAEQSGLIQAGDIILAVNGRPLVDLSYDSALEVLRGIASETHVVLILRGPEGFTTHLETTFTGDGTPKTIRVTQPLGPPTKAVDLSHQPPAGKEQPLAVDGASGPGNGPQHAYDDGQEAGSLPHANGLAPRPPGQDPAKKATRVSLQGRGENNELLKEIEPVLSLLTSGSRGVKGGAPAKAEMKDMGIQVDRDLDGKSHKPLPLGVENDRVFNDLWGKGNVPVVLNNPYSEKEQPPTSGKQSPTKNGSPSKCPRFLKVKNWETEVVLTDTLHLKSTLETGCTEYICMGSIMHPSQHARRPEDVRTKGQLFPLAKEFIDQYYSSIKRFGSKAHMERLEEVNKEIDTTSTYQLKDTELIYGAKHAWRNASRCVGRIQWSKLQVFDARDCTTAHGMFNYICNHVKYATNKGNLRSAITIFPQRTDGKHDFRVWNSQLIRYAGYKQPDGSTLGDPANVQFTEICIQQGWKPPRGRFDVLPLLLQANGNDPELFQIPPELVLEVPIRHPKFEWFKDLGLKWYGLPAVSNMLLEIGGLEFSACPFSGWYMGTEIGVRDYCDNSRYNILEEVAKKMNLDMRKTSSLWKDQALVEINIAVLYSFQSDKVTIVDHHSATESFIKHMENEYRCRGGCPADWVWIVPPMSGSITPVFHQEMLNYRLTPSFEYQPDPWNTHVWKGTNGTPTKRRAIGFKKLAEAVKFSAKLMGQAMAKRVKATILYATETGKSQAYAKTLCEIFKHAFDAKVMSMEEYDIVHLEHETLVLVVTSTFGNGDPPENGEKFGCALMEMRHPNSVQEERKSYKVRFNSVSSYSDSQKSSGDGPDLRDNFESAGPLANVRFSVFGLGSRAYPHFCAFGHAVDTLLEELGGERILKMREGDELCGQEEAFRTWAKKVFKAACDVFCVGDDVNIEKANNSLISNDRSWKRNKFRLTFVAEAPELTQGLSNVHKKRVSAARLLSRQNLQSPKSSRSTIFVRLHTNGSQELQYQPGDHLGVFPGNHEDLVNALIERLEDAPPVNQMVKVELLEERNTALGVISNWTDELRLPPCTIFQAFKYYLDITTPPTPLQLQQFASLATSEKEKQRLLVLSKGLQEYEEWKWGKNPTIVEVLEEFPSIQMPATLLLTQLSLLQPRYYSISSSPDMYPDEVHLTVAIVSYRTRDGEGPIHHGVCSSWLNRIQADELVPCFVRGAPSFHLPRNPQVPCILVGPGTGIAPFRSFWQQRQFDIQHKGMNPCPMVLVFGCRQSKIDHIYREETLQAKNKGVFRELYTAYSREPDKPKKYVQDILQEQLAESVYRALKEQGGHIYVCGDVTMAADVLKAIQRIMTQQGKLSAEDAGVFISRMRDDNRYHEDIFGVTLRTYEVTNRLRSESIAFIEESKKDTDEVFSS
Nitric oxide synthase, inducible, sequence (P35228 whole entry): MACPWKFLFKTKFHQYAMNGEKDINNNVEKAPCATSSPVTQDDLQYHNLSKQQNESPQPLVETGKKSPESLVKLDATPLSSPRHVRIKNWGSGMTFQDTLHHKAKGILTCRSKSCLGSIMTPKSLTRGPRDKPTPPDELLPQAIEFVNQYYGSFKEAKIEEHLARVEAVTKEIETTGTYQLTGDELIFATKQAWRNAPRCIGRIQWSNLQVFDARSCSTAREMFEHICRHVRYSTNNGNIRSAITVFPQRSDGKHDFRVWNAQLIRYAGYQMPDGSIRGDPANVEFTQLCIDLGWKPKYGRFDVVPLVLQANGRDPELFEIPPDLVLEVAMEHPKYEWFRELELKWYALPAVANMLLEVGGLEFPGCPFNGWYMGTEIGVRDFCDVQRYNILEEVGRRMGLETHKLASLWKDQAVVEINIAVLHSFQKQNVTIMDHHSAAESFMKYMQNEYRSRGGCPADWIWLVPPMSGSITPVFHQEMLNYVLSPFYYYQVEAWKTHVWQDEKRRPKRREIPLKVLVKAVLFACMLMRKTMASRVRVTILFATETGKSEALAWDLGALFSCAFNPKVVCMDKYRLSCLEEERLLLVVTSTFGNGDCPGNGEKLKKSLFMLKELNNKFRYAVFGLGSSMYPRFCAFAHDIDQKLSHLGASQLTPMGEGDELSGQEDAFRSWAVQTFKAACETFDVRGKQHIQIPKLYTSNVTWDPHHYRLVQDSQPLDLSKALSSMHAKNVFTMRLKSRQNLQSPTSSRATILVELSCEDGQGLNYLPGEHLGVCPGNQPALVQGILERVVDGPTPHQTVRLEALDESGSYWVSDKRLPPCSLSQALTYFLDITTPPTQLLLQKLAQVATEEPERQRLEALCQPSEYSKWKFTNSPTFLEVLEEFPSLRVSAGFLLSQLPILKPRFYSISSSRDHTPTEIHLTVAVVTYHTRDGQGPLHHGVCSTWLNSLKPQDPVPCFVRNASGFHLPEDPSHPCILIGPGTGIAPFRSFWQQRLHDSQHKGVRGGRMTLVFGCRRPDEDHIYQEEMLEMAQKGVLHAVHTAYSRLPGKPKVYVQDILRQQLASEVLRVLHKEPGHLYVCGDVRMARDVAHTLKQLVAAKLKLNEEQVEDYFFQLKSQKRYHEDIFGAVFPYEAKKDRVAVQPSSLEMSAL

Row | Structure (SMILES) | IC50 (Nitric oxide synthase 1) | IC50 [1] | IC50 (Nitric oxide synthase 3) | Ratio [2]
1 | CC1CN=C(N)C1C (stereo unspecified) | 0.61 µM | 1.2 µM | 8.7 µM | 7.2
2 | CCCC1CN=C(N)C1 (stereo unspecified) | 53 µM | 38.7 µM | 53 µM | 1.4
3 | CCCC1N=C(N)CC1C (stereo unspecified) | 4.8 µM | 2 µM | 49 µM | 24
4 | CC1CN=C(N)S1 (stereo unspecified) | > 50 µM | > 50 µM | > 50 µM | 
5 | CC(=N)NCCCC[C@H](N)C(=O)O [L-NIL] | 17.5 µM |  |  | 3.7
6 | CC1CCN=C1N (stereo unspecified) | 0.9 µM | 1.5 µM | 1.8 µM | 1.2
7 | N=C1CCC2CCCCN12 (stereo unspecified) | > 50 µM | > 50 µM | > 50 µM | 
8 | CC1CN=C(N)C1 (stereo unspecified) | 0.8 µM | 0.2 µM | 2.6 µM | 13
9 | CCC1CN=C(N)C1C (stereo unspecified) | 0.61 µM | 0.93 µM | 60.6 µM | 65
10 | CC1CCC(N)=N1 (stereo unspecified) | 3.1 µM | 1.3 µM | 1.9 µM | 1.4
11 | NC1=NC(c2ccccc2)CS1 (stereo unspecified) | > 50 µM | > 50 µM | > 50 µM | 
12 | CC1CC(N)=NC1C (stereo unspecified) | 0.13 µM | 0.3 µM | 0.6 µM | 
13 | CC(C)C1CN=C(N)C1 (stereo unspecified) | 10.6 µM | 3.5 µM | 87.8 µM | 25
14 | CCCCC1CSC(N)=N1 (stereo unspecified) | 13.2 µM | 5.2 µM | > 50 µM | 
15 | N=C1SCC2CCCCN12 (stereo unspecified) | > 50 µM | > 50 µM | > 50 µM | 
16 | N=C1SCC2CCCN12 (stereo unspecified) | 14 µM | > 50 µM | > 50 µM | 
17 | NC1=NC2CCCC2C1 (stereo unspecified) | 9.9 µM | > 50 µM | > 50 µM | 
18 | CCC1CC(N)=NC1C (stereo unspecified) | 0.14 µM | 0.16 µM | 6.3 µM | 38
19 | N=C1CCC2CCCN12 (stereo unspecified) | 9.6 µM | > 50 µM | 33 µM | 
20 | NC1=NCCC1 | 9.6 µM | 4.1 µM | 4.6 µM | 1.1
21 | CCCC1CC(N)=NC1C (stereo unspecified) | 27 µM | 13.1 µM | 104 µM | 8
22 | CCC1N=C(N)CC1C (stereo unspecified) | 0.08 µM | 0.02 µM | 0.52 µM | 26
23 | NC1=NCCS1 | 1.8 µM | 0.9 µM | 1.1 µM | 1.2
24 | CCC1CN=C(N)C1 (stereo unspecified) | 2.6 µM | 0.5 µM | 14.5 µM | 27
25 | CCCC1CC(N)=NC1CC (stereo unspecified) | 17.3 µM | 10.2 µM | 227 µM | 22
26 | CCC1CC(C)C(N)=N1 (stereo unspecified) | 2.4 µM | 23 µM | 5.5 µM | 0.24
27 | NC1=NCC(c2ccccc2)C1 (stereo unspecified) | > 50 µM | > 50 µM | > 50 µM | 

— ChEMBL document CHEMBL1137191, “Evaluation of pyrrolidin-2-imines and 1,3-thiazolidin-2-imines as inhibitors of nitric oxide synthase” (Bioorg Med Chem Lett, 2004)
